Data set [1] concerns Human corneal epithelial cells (hCEC). In words: BrdU cell proliferation ELISA. Format: cell-based. The protocol:
(§1) Proliferation of hCEC was determined using a 5-bromo-2'-deoxyuridine (BrdU) ELISA in accordance with the manufacturers' recommendations (Merck KGaA, Darmstadt, Germany). In brief, approximately 7,000 cells were seeded onto a 96-well cell culture plate and incubated for 24h to achieve complete adherence of the cells. After 24 hours of incubation with 100 µl of corneal epithelial cell growth medium without its' supplement mix, hCECs were treated with eriocitrin and/or SCH772984 (Selleckchem, Houston, TX, USA), an inhibitor of ERK1/2 phosphorylation, both dissolved in DMSO. Following another 24 hours of incubation with BrdU labeling solution, cells were fixed and incubated with anti-BrdU antibodies according to the manufacturer's recommendations. BrdU incorporation into the DNA of hCECs was quantified by absorbance measurement at 450 nm.

For data set [2] the following is noted: 80°C for 30 min, pH 7; cited from earlier work.
Data set [3] deals with ERK1/2. Kind of data set: Western blot of ERK1/2 phosphorylation in corneal epithelial cells. Format: cell-based. The following applies: Homo sapiens, Corneal epithelial cell, 1 hour, compared to DMSO-only control, Fig. 4, read-out: pERK1/2 protein expression. The protocol:
To analyze whether eriocitrin activates the extracellular signal-regulated kinase-1 and -2 (ERK1/2), human corneal epithelial cells were treated with 10 µM eriocitrin for 1 hour. Corneal proteins were isolated in radioimmunoprecipitation assay (RIPA) buffer. Protein concentration was measured with a bicinchoninic acid (BCA) assay according to the manufacturer's instructions (Thermo Fisher Scientific, Waltham, MA, USA). Up to 25 µg of total proteins were subjected to 8% SDS-PAGE. Following gel electrophoresis proteins were transferred onto a polyvinylidine fluoride (PVDF) membrane (Roche Holding, Basel, Switzerland) by semidry blotting. After blocking with 3% low fat milk in PBS-Tween (PBS-T) for one hour, membranes were incubated overnight with a rabbit-anti-pERK1/2 (1:1000; Cell Signaling Technology, Danvers, MA, USA) in PBS-T with 0.3% low fat milk. Alkaliphosphatase-conjugated mouse-anti-rabbit antibodies (1:1000, Jackson Immunoresearch Europe, UK) were used as secondary antibodies. Antibody hybridization was visualized using the CDP-Star substrate (Thermo Fisher) and documented with the Western Blot Reader iBright CL 1000 (Thermo Fisher). As a loading control, AP-conjugated anti-alpha-tubulin antibodies were used (1:1000, Merck). The densitometry of Western blot analyses was performed with the iBright Image software v.1.4.0 software (Thermo Fisher).
In general terms: A western blot detects proteins with antibodies after separation by electrophoresis.

Data set [4] deals with Human corneal epithelial cells (hCEC). In words: Oxidative stress model (H2O2) with BrdU proliferation assay. Format: cell-based. The following applies: 24 h, Fig. 3, read-out: cell proliferation. The protocol:
as §1
To determine potential anti-oxidative effects of eriocitrin, hCECs were incubated and treated analogous to the above-mentioned BrdU ELISA with minor modifications. To induce oxidative stress, hydrogen peroxide (H2O2) in a concentration of 100 µM was added to the treatment groups and an additional H2O2-only group was tested. Following another incubation of the hCECs for 24 hours, the BrdU assay was further performed according to the description above.

Data set [5] shares this test system. In words: WST-1 cell viability assay. Format: cell-based. The following applies: any of the concentrations tested, 72 hours, compared to DMSO control; Fig. 1A. The protocol: (§2) Human corneal epithelial cells (hCEC; SCCE016; Merck Millipore, Burlington, MA, USA) were cultured in corneal epithelial cell growth medium with supplement mix (LGC Standards, Teddington, United Kingdom). Approximately 10,000 hCECs were seeded onto each well of a 96-well cell-culture dishes (NUNC, Langenselbold, Germany). After 24 hours of incubation with 100 µl of corneal epithelial cell growth medium without its' supplement mix (LGC Standards, Teddington, United Kingdom), hCECs were treated with different concentrations of eriocitrin (EC; Selleckchem, Houston, TX, USA) dissolved in dimethyl sulfoxide (DMSO; Carl Roth AG, Karlsruhe, Germany). Control groups were treated with DMSO only. Following another 72 hours of incubation, the cells were incubated with the water-soluble tetrazolium salt (WST-1; Hoffmann-La Roche AG, Basel, Switzerland) solution for 30 minutes. Substrate turnover was measured with an ELISA reader at 450 nm (Spectramax 190; Molecular Devices, Sunnyvale, CA, USA) and a reference at 690 nm.
(Tetrazolium dyes change colour on reduction, which living cells bring about.)

Data set [6] can be described thus: WST-1 cell viability assay. Format: cell-based, Human. The following applies: human, corneal epithelial cells, 0.5 µM, DMSO control = 100 ± 12%, mean ± SD. The protocol:
as §2

Data set [7] deals with Human corneal epithelial cells (hCEC). In words: Cell scratch (wound healing / migration) assay in vitro. The format is cell-based. The following applies: 10 µM, Fig. 2. The protocol:
To analyze hCEC migration in vitro, cells were cultured in corneal epithelial cell growth medium with supplement mix until confluence of the cells of a 6-well cell culture plate. Following an incubation period of 24 hours in cell culture medium without supplements, 5 linear scratches were performed in each well using a 200 µl pipette tip (Eppendorf AG, Hamburg, Germany). The hCECs were then incubated prospectively under treatment with eriocitrin or DMSO as a control for up to 48 hours. Reference images were acquired at the beginning of the incubation period using the phase contrast mode on an Axio Observer 7 (Carl Zeiss AG, Jena, Germany). Every 24 hours, follow-up images of different scratch sections were acquired. The size of the wound area was analyzed using a semi-automated analysis tool in ImageJ 1.53a (National Institute of Health, Bethesda, MD, USA).

The conditions of data set [8]: 'it is believed'; basis not stated; cited from earlier work.

Here are results for three molecules from patent publication EP4302767A1, “OPHTHALMIC COMPOSITION COMPRISING ERIOCITRIN” (Skeye Pharma GmbH, priority 2022, dated 2024).

By viability is commonly meant a read-out of living cells in per cent, often relative to untreated cells.

As to `O=C(Nc1ccc2[nH]nc(-c3ccncc3)c2c1)[C@@H]1CCN(CC(=O)N2CCN(c3ccc(-c4ncccn4)cc3)CC2)C1` [SCH772984, reference compound], in data set [1] (100 nM added to 10 µM eriocitrin, 24 hours, Fig. 5), the “effect on eriocitrin-enhanced proliferation of corneal epithelial cells” value was “completely blocked”.

As for `C[C@@H]1O[C@@H](OC[C@H]2O[C@@H](Oc3cc(O)c4c(c3)O[C@H](c3ccc(O)c(O)c3)CC4=O)[C@H](O)[C@@H](O)[C@@H]2O)[C@H](O)[C@H](O)[C@H]1O` [eriocitrin, (2S)-3',4',5-trihydroxy-7-[α-L-rhamnopyranosyl-(1→6)-β-D-glucopyranosyloxy]flavan-4-one], the proliferation stood at 104 ± 9% in data set [1] (10 µM eriocitrin plus 100 nM SCH772984, 24 hours, Fig. 5) and 129 ± 11% in data set [1] (10 µM, 24 hours, compared to DMSO treated controls, Fig. 5). The activity at 0.5 µM in data set [1] (Homo sapiens, HCEC, 0.5 µM, 24 hours, DMSO control = 100 ± 17%, Fig. 1B) is 118 ± 39%. In addition, the activity at 1 µM in data set [1] (Homo sapiens, HCEC, 1 µM, 24 hours, DMSO control = 100 ± 17%, Fig. 1B) was 126 ± 33%. Further, the activity at 2.5 µM in data set [1] (Homo sapiens, HCEC, 2.5 µM, 24 hours, DMSO control = 100 ± 17%, Fig. 1B) was found to be 127 ± 29%. Also, the activity at 5 µM in data set [1] (Homo sapiens, HCEC, 5 µM, 24 hours, DMSO control = 100 ± 17%, Fig. 1B) is 143 ± 36%; in data set [4] (5 µM added to 100 µM H2O2, 24 hours, H2O2 control 81 ± 12%), 113 ± 9%; in data set [4] (5 µM, 24 hours, without H2O2, compared to DMSO control) it was 117 ± 8%. Besides, the activity at 10 µM in data set [1] (Homo sapiens, HCEC, 10 µM, 24 hours, DMSO control = 100 ± 17%, Fig. 1B) was determined as 162 ± 49%; in data set [4] (10 µM added to 100 µM H2O2, 24 hours, H2O2 control 81 ± 12%), 115 ± 18%; in data set [4] (10 µM, 24 hours, without H2O2, compared to DMSO control) it was 125 ± 18%. In addition, the “eriocitrin molecules remain intact” value in data set [2] was 60%. For the same molecule, in data set [3], the fold induction at 10 µM is 1.8 ± 0.9. Moreover, the “toxic effects on corneal epithelial cell viability” value in data set [5] is “did not show any toxic effects”. The viability at 72 h, 0.5 µM in data set [6] is 110 ± 14%. In addition, the “scratched hCEC area, difference to DMSO-only control” value in data set [7] (24 hours of incubation, p > 0.9999) is listed as “slight difference”. In addition, in data set [7] (48 hours of incubation, control 71.9 ± 7.7%), the remaining wound area was 64.5 ± 7.8%.

Turning to `COc1cc(O)c(CC=C(C)C)c(O)c1C(=O)/C=C/c1ccc(O)cc1` [xanthohumol, 1-[2,4-Dihydroxy-6-methoxy-3-(3-methyl-but-2-enyl)-phenyl]-3-(4-hydroxyphenyl)-propenon], the first pka entry in data set [8] is recorded as “about 7”.
